# pIC50: −log10 of the molar value.
# Target: GABA-A receptor; anion channel
# Test: Inhibition of [3H]-Ro- 15-1788 binding to GABA-A benzodiazepine receptor in rat brain membrane
# Format: cell membranes
row,Structure (SMILES),pIC50
1,O=c1c2cnc3ccc(OCc4ccccc4)cc3c2[nH]n1-c1ccc(Cl)cc1,7.28
2,O=c1c2cnc3cccc(O)c3c2[nH]n1-c1ccccc1,9.13
3,O=c1c2cnc3cccc(OCc4ccccc4)c3c2[nH]n1-c1ccccc1,< 3.00
4,O=c1c2cnc3cc(OCc4ccccc4)ccc3c2[nH]n1-c1ccccc1,< 6.00
5,COc1cccc2ncc3c(=O)n(-c4ccccc4)[nH]c3c12,9.17
6,O=c1c2cnc3c(OCc4ccccc4)cccc3c2[nH]n1-c1ccccc1,< 6.00
7,O=c1c2cnc3ccc(OCc4ccccc4)cc3c2[nH]n1-c1ccccc1,8.43

# From ChEMBL document CHEMBL1128271, “Computer-aided molecular modeling, synthesis, and biological evaluation of 8-(benzyloxy)-2-phenylpyrazolo[4,3-c]quinoline as a novel benzodiazepine receptor agonist ligand” (J Med Chem, 1995)
